The assay has as its system hair follicle organ. The assay is described as follows: Hair follicle organ cultured in vitro, length of re-grown hair. Type of assay: cell-based, mice (F1 generation of C3H mated with BALB/C). Particulars: hair follicles cultured 12 days in the formula of amino acids and vitamins; length measured at Day 12; FIG. 7. The source says: At the age of 8 weeks, the F1 generation of C3H mated with BALB/C supplies the hair follicle material. By plucking the whiskers by depilating forceps, an anagen phase of the hair follicle can be induced. After three days of whisker plucking, the mice were killed and the hair follicle samples were harvested. Each selected hair follicle was then carefully isolated from the subcutaneous fat and the connective tissue surrounding the capsule was removed under a stereo-dissection microscope with fine forceps. We picked up the intact hair follicles with average size for the next step of culture, and which is in the early anagen stage, which is determined by the hair follicle conformation. Before culture, the hair fibre was first cut out at the surrounding line of the hair follicle to make the length measurement of hair growth much more easily in the future (FIG. 7). […]
Ten hair follicles were cultured in each treatment. […] The length of the hair growth beginning from the cutting site was measured at Day 12. […]
Hair follicle was observed by the Inverted microscope (Lieca DM, IL) and captured with the image by CCD connecting with a computer. The hair length was analyzed with the computer software: Northern Eclipse image system. The data of hair length were analyzed with the Duncan's new multiple range test by one way analysis of variance (ANOVA) using the SigmaStat program (2002).

With “HSCF-II: recombinant fusion of human SCF, linking peptide and IGF-I; 253 amino acids, SEQ ID NO:6”, the “effect on hair re-growth (hair length)” value was “even better than each of SCF and IGF-I”.

The values above are taken from patent US7524505B2, “Compositions and methods for dual therapies of hair graying and balding in follicular delivery systems” (Schweitzer Biotech Company Ltd., priority 2005, dated 2009).
